The target in this assay is T1, Integrin alpha-4/beta-7 (Homo sapiens, UniProt P13612+P26010).
T1 sequence (P13612 whole entry): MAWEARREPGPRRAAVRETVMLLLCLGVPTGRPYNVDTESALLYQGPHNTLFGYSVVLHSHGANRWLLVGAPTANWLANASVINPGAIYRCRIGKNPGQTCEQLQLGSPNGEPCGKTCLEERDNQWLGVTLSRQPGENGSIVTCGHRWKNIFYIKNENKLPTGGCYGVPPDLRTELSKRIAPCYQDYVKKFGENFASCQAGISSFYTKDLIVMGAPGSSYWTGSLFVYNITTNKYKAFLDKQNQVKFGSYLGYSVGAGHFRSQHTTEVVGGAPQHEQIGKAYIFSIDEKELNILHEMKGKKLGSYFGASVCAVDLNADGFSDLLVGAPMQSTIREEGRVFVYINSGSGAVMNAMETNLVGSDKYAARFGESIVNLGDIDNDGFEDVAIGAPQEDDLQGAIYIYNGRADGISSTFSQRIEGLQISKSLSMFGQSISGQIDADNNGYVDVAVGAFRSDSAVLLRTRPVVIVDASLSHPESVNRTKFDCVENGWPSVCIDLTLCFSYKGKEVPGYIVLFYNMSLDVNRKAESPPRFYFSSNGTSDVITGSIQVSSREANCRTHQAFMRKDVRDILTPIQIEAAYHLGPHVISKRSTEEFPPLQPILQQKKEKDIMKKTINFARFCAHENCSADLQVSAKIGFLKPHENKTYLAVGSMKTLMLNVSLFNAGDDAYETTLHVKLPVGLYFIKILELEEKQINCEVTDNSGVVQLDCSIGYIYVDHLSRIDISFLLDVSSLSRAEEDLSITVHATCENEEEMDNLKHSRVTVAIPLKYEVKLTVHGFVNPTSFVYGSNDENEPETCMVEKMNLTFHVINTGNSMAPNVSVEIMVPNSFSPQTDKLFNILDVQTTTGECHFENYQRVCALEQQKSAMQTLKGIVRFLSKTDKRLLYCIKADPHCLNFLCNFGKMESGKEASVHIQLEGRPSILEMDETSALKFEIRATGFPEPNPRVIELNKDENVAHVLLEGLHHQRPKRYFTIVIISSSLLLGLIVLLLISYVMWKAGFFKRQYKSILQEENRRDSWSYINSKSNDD
T1 sequence (P26010 whole entry): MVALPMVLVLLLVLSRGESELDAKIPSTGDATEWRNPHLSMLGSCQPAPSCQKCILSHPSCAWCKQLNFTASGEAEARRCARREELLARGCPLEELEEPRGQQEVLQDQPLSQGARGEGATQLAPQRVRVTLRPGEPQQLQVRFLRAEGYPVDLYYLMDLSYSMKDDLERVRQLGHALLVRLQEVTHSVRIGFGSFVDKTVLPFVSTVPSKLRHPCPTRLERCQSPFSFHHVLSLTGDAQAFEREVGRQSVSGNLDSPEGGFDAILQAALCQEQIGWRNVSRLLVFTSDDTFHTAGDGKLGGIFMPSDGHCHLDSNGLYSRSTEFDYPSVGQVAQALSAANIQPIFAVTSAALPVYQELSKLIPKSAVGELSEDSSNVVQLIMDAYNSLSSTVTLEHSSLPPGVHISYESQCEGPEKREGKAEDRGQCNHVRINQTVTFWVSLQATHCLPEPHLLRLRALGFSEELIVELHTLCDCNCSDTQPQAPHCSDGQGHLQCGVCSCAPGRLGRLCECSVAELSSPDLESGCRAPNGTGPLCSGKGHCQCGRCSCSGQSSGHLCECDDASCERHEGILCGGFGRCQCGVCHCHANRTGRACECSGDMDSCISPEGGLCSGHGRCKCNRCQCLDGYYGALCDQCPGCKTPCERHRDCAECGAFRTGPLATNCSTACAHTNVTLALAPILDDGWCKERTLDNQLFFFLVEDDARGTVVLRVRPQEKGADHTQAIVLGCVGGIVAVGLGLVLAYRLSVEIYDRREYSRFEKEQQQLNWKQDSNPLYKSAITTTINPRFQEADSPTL
The assay can be described thus: alpha-4 beta-7 Integrin Cell Capture Assay. On the procedure: The potency of inhibitors in preventing α4β7 integrin interaction with MadCAM-1 was measured by monitoring the capture of α4β7 integrin expressing cells on a recombinant MadCAM-1 extracellular domain-coated plate. 384-Well plates (Corning 3702) were coated with MadCAM-1 extracellular domain by dispensing 20 μL of MAdCAM-1 at 1.0 μg/mL per well and incubating overnight at 4° C. The plates were then washed with PBS and blocked with 3% BSA for 2 hours before being washed again.

Each structure is given as a SMILES string.

In turn, `N#Cc1ccc(-c2ccc(C[C@H](NC(=O)c3ccc4[nH]ccc4c3Cl)C(=O)O)c3cccnc23)c(Cl)c1` [US11116760, Example 266] had an EC50 of 72.2 nM. This counts as double-digit nanomolar.

`N#Cc1ccc(-c2ccc(C[C@H](NC(=O)c3c(F)cc(N4CCOC(C(F)(F)F)C4)cc3F)C(=O)O)c3cccnc23)c(Cl)c1` (some centres not stated) [US11116760, Example 245] returned an EC50 of 33.6 nM.

These data come from BindingDB's records for patent US11116760 (Gilead Sciences, 2021).
